Activity calls are given as the source filed them. No cut-off for these calls is given here.
Tests used:
Rattus norvegicus [1] = assay: Activity in rat formalin model measured as reduction in flinches at 19 umol/kg, ip; type: functional; design: scale not given: the % may be the effect or the level left
[2] = molecular target: T1, Neuronal acetylcholine receptor; alpha3/beta4 (Homo sapiens, UniProt P30926+P32297); assay: Maximal agonist activity at human alpha-3-beta-4 ACHR expressed in HEK293 cells assessed as change in intracellular calcium concentration by FLIPR relative to nicotine; type: functional, cell-based
T1 sequence (P30926 whole entry): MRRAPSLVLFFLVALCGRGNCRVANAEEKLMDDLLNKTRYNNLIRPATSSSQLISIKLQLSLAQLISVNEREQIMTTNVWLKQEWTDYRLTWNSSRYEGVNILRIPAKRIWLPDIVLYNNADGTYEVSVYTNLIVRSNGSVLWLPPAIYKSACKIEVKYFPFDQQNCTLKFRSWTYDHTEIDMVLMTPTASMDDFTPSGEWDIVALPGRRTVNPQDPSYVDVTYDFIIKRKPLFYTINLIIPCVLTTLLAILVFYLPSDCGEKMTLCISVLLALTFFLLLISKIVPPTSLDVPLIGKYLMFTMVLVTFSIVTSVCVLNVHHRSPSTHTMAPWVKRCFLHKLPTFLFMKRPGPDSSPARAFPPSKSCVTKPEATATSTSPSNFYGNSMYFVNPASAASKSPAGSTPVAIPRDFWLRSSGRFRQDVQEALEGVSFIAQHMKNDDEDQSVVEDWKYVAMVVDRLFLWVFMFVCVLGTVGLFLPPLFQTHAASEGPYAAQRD
T1 sequence (P32297 whole entry): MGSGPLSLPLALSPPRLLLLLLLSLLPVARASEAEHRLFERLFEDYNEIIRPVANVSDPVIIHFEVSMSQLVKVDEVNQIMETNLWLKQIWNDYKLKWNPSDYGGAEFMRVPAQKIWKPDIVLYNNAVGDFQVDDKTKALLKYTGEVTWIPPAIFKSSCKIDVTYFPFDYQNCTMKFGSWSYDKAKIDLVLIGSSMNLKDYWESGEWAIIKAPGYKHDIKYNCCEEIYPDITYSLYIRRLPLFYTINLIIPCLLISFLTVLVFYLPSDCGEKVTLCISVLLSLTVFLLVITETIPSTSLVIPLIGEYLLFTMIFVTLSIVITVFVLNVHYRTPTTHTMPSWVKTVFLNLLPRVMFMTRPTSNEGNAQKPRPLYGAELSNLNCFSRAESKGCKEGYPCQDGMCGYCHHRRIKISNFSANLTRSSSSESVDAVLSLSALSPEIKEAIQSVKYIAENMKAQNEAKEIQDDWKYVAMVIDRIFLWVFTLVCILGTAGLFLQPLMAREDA

[3] = molecular target: T2, Neuronal acetylcholine receptor; alpha4/beta2 (Homo sapiens, UniProt P17787+P43681); assay: Agonist activity at human alpha4beta2 ACHR expressed in HEK293 cells assessed as change in intracellular calcium concentration by FLIPR; type: functional, cell-based
T2 sequence (P17787 whole entry): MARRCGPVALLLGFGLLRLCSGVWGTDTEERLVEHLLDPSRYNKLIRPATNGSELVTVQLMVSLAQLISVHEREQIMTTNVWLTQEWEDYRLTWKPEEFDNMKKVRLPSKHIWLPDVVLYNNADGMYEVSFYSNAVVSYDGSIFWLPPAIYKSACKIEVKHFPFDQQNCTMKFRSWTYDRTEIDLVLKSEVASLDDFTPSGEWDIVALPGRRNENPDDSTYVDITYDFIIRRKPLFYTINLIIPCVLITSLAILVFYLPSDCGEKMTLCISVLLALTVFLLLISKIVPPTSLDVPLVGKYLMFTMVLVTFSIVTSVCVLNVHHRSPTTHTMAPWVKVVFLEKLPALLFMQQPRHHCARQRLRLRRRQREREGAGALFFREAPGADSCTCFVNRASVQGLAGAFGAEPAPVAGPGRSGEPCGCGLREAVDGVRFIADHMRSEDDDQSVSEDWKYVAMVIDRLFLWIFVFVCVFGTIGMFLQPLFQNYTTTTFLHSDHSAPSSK
T2 sequence (P43681 whole entry): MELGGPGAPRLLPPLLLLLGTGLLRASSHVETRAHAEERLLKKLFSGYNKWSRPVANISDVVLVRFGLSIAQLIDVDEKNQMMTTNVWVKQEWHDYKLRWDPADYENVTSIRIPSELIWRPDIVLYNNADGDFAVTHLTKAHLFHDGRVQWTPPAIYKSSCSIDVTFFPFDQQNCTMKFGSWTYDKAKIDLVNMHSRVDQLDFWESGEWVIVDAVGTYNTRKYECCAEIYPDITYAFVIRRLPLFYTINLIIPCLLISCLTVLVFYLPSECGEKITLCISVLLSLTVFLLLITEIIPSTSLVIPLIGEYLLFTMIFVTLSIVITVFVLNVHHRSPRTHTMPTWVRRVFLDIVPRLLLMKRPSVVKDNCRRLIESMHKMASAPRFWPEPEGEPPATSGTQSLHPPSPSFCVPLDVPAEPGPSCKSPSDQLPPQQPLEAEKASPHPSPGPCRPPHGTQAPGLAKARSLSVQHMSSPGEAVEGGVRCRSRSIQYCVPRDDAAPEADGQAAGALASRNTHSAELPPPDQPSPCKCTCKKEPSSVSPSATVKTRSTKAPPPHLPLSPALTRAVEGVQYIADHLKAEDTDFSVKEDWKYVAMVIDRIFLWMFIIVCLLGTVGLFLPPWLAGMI

[4] = molecular target: T1, Neuronal acetylcholine receptor; alpha3/beta4; assay: Agonist activity at human alpha-3-beta-4 ACHR expressed in HEK293 cells assessed as change in intracellular calcium concentration by FLIPR; type: functional, cell-based
[5] = molecular target: Neuronal acetylcholine receptor; alpha4/beta2 (Rattus norvegicus, UniProt P09483+P12390); assay: Displacement of [3H]cytisine from alpha-4-beta-2 ACHR in rat brain homogenate; type: tissue-based
Chain of Neuronal acetylcholine receptor; alpha4/beta2 (Rattus norvegicus, UniProt P09483+P12390) (P09483 whole entry): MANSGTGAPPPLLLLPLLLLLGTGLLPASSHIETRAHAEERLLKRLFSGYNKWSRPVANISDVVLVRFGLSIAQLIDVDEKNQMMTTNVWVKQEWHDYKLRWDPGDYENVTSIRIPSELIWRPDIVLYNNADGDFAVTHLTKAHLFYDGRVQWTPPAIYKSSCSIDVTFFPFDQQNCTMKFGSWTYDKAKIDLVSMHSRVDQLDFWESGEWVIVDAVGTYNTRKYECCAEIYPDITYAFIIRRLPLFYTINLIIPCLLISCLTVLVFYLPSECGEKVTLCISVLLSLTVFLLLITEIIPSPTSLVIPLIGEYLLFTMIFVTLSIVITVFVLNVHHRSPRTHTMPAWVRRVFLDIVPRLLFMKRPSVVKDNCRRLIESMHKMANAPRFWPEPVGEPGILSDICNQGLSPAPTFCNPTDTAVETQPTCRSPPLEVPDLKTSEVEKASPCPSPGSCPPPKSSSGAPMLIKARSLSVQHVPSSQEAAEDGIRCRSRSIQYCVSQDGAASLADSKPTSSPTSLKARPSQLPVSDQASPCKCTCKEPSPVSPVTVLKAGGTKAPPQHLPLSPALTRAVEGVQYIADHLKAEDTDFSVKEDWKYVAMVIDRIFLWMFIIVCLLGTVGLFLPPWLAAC
Chain of Neuronal acetylcholine receptor; alpha4/beta2 (Rattus norvegicus, UniProt P09483+P12390) (P12390 whole entry): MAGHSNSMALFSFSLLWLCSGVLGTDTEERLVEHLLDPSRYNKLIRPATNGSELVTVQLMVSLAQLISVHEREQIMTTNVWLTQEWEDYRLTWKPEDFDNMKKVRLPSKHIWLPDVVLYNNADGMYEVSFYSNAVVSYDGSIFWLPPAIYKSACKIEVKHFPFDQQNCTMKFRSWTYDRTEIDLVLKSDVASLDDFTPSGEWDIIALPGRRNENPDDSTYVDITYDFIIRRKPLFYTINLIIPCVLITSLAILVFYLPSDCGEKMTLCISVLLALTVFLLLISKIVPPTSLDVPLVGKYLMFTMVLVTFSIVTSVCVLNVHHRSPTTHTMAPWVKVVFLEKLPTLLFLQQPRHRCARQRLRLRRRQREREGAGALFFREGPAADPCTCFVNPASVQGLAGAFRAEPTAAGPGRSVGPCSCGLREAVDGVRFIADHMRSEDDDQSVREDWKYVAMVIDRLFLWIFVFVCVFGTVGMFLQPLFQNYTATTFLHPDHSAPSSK

[6] = molecular target: T2, Neuronal acetylcholine receptor; alpha4/beta2; assay: Maximal agonist activity on human alpha-4-beta-2 ACHR expressed in HEK293 cells assessed as change in intracellular calcium concentration by FLIPR relative to nicotine; type: functional, cell-based
Homo sapiens = species: Homo sapiens; assay: Selectivity for human alpha4beta2 ACHR over alpha-3-beta-4 ACHR; type: functional
Rattus norvegicus [7] = assay: Induction of behavioral side effects in rat formalin model upto 19 umol/kg, […]; type: functional, organism-based
Rattus norvegicus [8] = species: Rattus norvegicus; assay: Activity in rat formalin model measured as reduction in flinches; type: functional, organism-based
Rattus norvegicus [9] = assay: Activity in rat formalin model measured as reduction in flinches at 6.2 umol/kg, ip; type: functional; design: scale not given: the % may be the effect or the level left

SMILES | Activity (Rattus norvegicus [1]) | Activity [2] [%] | EC50 [3] [nM] | EC50 [4] [nM] | Ki [5] [nM] | Activity [6] [%] | Ratio EC50 (Homo sapiens) | Activity (Rattus norvegicus [7]) | Activity (Rattus norvegicus [8]) | Activity (Rattus norvegicus [9]) [%]
Cc1cc(N2C[C@H]3CCNC[C@H]32)cnc1Cl | 75% | 103 | 134 | 298 | 0.24 | 142 |  |  |  | 
Clc1ccc(N2CC[C@H]3CN[C@H]3C2)cn1 |  | 151 | 13 | 29 | 0.019 | 114 | 2 |  |  | 
N#Cc1cc(N2CC[C@H]3CN[C@H]3C2)cnc1Br |  | 133 | 6.1 | 4.4 | 0.027 | 215 |  |  |  | 
Clc1ccc(N2CC[C@@H]3CN[C@@H]3C2)nn1 |  | 113 | 359 | 394 | 2.7 | 129 |  | Active |  | 
c1ncc(N2CC[C@@H]3CN[C@@H]3C2)cn1 |  | 106 | 4390 | 1020 | 0.2 | 79 |  |  |  | 
CCOc1cncc(N2CC[C@H]3CN[C@H]3C2)c1 |  | 103 | 620 | 124 | 0.052 | 116 |  |  |  | 
c1cncc(N2CC[C@@H]3CN[C@@H]3C2)c1 |  | 118 | 330 | 260 | 0.059 | 112 |  |  |  | 
COc1cncc(N2CC[C@H]3CN[C@H]3C2)c1 |  | 103 | 130 | 180 | 0.038 | 178 |  | inactive | Dose-dependent effect | 
c1cncc(N2C[C@@H]3CCNC[C@@H]32)c1 |  | 98 | 410 | 1700 |  | 105 |  | Active |  | 
c1cncc(N2C[C@H]3CCNC[C@H]32)c1 |  | 97 | 1400 | 1540 |  | 84 |  |  |  | 
Clc1cc(N2CC[C@@H]3CN[C@@H]3C2)cnc1Cl | 55% | 111 | 82 | 110 | 0.027 | 79 |  |  |  | 
NC(=O)c1cc(N2C[C@@H]3CCNC[C@@H]32)cnc1Br |  | 73 | 1490 | 23300 | 2.8 | 75 |  |  |  | 
Clc1ccc(N2CC[C@H]3CN[C@H]3C2)nn1 |  | 128 | 78.3 | 64.8 | 0.15 | 222 |  |  |  | 
Clc1ccc(N2C[C@H]3CCNC[C@H]32)cn1 |  | 93 | 216 | 1520 | 0.8 | 102 |  |  |  | 
COc1cc(N2C[C@H]3CCNC[C@H]32)cnc1Br |  | 98 | 200 | 202 | 0.085 | 120 |  |  |  | 
COc1ccc(N2CC[C@@H]3CN[C@@H]3C2)cn1 |  | 93 | 4980 | 2400 | 2.7 | 54 |  |  |  | 
Cc1cncc(N2CC[C@@H]3CN[C@@H]3C2)c1 |  | 87 | 650 | 1400 | 0.064 | 54 |  | inactive |  | 
Clc1ccc(N2CC[C@@H]3CN[C@@H]3C2)cn1 |  | 125 | 24 | 25 | 0.032 | 130 |  |  |  | 
Clc1cc(N2C[C@H]3CCNC[C@H]32)cnc1Cl |  | 103 | 176 | 339 | 0.3 | 127 |  |  |  | 
N#Cc1cncc(N2CC[C@H]3CN[C@H]3C2)c1 |  | 127 | 1900 | 1000 | 0.12 | 112 |  |  |  | 80
COc1cncc(N2C[C@H]3CCNC[C@H]32)c1 |  | 88 | 1100 | 4360 | 0.56 | 104 |  |  |  | 
N#Cc1cc(N2C[C@H]3CCNC[C@H]32)cnc1Br |  | 100 | 172 | 238 | 0.3 | 157 |  |  |  | 
Brc1cncc(N2CC[C@@H]3CN[C@@H]3C2)c1 (single isomer, unassigned) |  | 91 | 1000 | 950 | 0.053 | 58 |  |  |  | 
COc1ccc(N2CC[C@H]3CN[C@H]3C2)cn1 |  | 88 | 2200 | 1100 | 0.98 | 96 |  |  |  | 
N#Cc1cncc(N2CC[C@@H]3CN[C@@H]3C2)c1 | inactive | 116 | 1900 | 490 | 0.065 | 76 |  |  |  | 

SMILES | Activity (Rattus norvegicus [1]) | Activity [2] [%] | EC50 [3] [nM] | EC50 [4] [nM] | Ki [5] [nM] | Activity [6] [%] | Ratio EC50 (Homo sapiens) | Activity (Rattus norvegicus [7]) | Activity (Rattus norvegicus [8]) | Activity (Rattus norvegicus [9]) [%]
Brc1cncc(N2CC[C@H]3CN[C@H]3C2)c1 |  | 122 | 150 | 76 | 0.024 | 148 |  |  |  | 
O=[N+]([O-])c1ccc(N2CC[C@H]3CN[C@H]3C2)cn1 |  | 119 | 100 | 390 | 1.5 | 196 |  |  |  | 
c1ncc(N2C[C@@H]3CCNC[C@@H]32)cn1 (single isomer, unassigned) |  | 93 | 8420 | 9940 | 1.6 | 104 |  |  |  | 
COc1cncc(N2CC[C@@H]3CN[C@@H]3C2)c1 |  | 86 | 2700 | 4500 | 0.18 | 35 |  |  | inactive | 
CCOc1cncc(N2CC[C@@H]3CN[C@@H]3C2)c1 |  | 86 | 1350 | 2800 | 0.16 | 18 |  |  |  | 
COc1cc(N2C[C@@H]3CCNC[C@@H]32)cnc1Br |  | 84 | 1690 | 2980 | 1.4 | 65 |  |  |  | 
Brc1cc(N2CC[C@@H]3CN[C@@H]3C2)cnc1Br | 26% | 100 | 76 | 110 | 0.024 | 86 |  |  |  | 
Cc1cc(N2CC[C@H]3CN[C@H]3C2)cnc1Cl |  | 123 | 7.2 | 7.2 | 0.031 | 207 |  |  |  | 
c1ncc(N2CC[C@H]3CN[C@H]3C2)cn1 |  | 121 | 350 | 108 | 0.04 | 181 |  |  |  | 
Clc1cc(N2CC[C@H]3CN[C@H]3C2)cnc1Cl |  | 132 | 12 | 9.9 | 0.025 | 221 |  |  |  | 
Clc1cc(N2C[C@@H]3CCNC[C@@H]32)cnc1Cl |  | 69 | 271 | 4110 |  | 60 |  | Active |  | 
N#Cc1cc(N2C[C@@H]3CCNC[C@@H]32)cnc1Br |  | 88 | 109 | 794 | 0.07 | 104 |  | Active |  | 
COc1cc(N2CC[C@H]3CN[C@H]3C2)cnc1Br |  | 120 | 21 | 8 | 0.027 | 217 |  |  |  | 
Brc1cc(N2CC[C@H]3CN[C@H]3C2)cnc1Br |  | 117 | 7.8 | 8.2 | 0.014 | 209 |  | inactive |  | 99
NC(=O)c1cc(N2C[C@H]3CCNC[C@H]32)cnc1Br |  | 90 | 340 | 7460 |  | 133 |  |  |  | 
COc1cc(N2CC[C@@H]3CN[C@@H]3C2)cnc1Br |  | 108 | 360 | 160 | 0.069 | 40 |  |  |  | 
Cc1cc(N2CC[C@@H]3CN[C@@H]3C2)cnc1Cl |  | 103 | 47 | 71 | 0.037 | 90 |  | inactive |  | 
N/C(=N/O)c1cncc(N2CC[C@@H]3CN[C@@H]3C2)c1 |  | 99 |  |  |  | 194 |  |  |  | 
N#Cc1cncc(N2C[C@@H]3CCNC[C@@H]32)c1 |  | 91 | 2190 | 2560 | 0.5 | 64 |  |  |  | 
N#Cc1cncc(N2C[C@H]3CCNC[C@H]32)c1 |  | 71 | 1930 | 5560 | 2.6 | 83 |  |  |  | 
Cc1cc(N2C[C@@H]3CCNC[C@@H]32)cnc1Cl | inactive | 91 | 76.1 | 1910 | 0.043 | 103 |  | Active |  | 
COc1cncc(N2C[C@@H]3CCNC[C@@H]32)c1 |  | 47 | 7690 | 63500 | 4.4 | 44 |  |  |  | 
O=[N+]([O-])c1ccc(N2CC[C@@H]3CN[C@@H]3C2)cn1 |  | 98 | 110 | 830 | 2.4 | 114 |  | Active |  | 
c1cncc(N2CC[C@H]3CN[C@H]3C2)c1 |  | 121 | 71 | 48 | 0.035 | 171 |  |  |  | 

— ChEMBL document CHEMBL1138225, “Synthesis and structure-activity relationships of 3,8-diazabicyclo[4.2.0]octane ligands, potent nicotinic acetylcholine receptor agonists” (J Med Chem, 2006)
